Results on one compound are retold here after ChEMBL document CHEMBL2073789, “Reversal of P-glycoprotein mediated multidrug resistance by a newly synthesized 1,4-benzothiazipine derivative, JTV-519” (Cancer Lett, 2002).

Data set [1] addresses ATP-dependent translocase ABCB1 (Homo sapiens, UniProt P08183). Put plainly: TP_TRANSPORTER: inhibition of Adriamycin efflux (Adriamycin: 10 uM, JTV-519: 10 uM) in K562/MDR cells. Type of data set: functional, cell-based.
Data set [2] concerns the target Multidrug resistance-associated protein 1 (MRP1) (Homo sapiens, UniProt P33527). Put plainly: TP_TRANSPORTER: inhibition of 125I-azidoAG-A photoaffinity labeling (125I-azidoAG-A: 5 uM, JTV-519: 500 uM) in membrane from KB/MRP cells. The format is functional, cell membranes, Membrane vesicle. Further details: scale not given: the % may be the effect or the level left. The following applies: probe 125I-azidoAG-A (5 uM), read-out: Activity.

Chain of ATP-dependent translocase ABCB1 (P08183 whole entry): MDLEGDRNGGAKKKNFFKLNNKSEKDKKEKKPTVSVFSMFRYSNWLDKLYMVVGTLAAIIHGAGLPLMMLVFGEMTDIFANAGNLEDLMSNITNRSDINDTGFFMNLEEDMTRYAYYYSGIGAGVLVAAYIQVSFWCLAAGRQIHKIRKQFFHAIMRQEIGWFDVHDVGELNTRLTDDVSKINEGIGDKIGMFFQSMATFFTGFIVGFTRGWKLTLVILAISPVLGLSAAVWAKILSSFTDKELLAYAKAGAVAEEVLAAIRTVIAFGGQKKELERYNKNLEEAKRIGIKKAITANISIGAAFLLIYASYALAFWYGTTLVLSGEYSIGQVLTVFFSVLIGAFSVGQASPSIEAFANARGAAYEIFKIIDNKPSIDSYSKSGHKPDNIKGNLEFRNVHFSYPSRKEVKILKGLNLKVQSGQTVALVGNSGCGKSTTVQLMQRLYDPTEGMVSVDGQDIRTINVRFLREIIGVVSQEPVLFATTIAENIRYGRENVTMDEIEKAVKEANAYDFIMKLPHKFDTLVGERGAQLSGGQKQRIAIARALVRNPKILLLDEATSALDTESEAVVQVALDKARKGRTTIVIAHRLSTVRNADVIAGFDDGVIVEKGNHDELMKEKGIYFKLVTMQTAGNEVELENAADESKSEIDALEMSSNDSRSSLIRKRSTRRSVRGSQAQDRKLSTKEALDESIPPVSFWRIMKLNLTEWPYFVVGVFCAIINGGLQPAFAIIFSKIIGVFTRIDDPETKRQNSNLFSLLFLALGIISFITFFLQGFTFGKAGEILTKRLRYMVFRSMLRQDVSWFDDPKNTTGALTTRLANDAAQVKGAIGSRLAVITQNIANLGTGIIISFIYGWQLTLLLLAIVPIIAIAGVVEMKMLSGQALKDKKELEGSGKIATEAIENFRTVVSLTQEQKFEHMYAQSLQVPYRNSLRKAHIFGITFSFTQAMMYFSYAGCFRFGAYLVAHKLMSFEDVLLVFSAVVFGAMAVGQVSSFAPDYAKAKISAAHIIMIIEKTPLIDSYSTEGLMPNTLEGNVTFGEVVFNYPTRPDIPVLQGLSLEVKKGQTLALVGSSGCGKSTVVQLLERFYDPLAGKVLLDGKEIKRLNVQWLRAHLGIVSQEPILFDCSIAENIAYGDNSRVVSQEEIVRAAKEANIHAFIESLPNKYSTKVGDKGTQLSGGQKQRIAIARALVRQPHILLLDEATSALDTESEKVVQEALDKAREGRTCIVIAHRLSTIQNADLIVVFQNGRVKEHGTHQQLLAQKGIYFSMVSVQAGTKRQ
Chain of Multidrug resistance-associated protein 1 (MRP1) (P33527 whole entry): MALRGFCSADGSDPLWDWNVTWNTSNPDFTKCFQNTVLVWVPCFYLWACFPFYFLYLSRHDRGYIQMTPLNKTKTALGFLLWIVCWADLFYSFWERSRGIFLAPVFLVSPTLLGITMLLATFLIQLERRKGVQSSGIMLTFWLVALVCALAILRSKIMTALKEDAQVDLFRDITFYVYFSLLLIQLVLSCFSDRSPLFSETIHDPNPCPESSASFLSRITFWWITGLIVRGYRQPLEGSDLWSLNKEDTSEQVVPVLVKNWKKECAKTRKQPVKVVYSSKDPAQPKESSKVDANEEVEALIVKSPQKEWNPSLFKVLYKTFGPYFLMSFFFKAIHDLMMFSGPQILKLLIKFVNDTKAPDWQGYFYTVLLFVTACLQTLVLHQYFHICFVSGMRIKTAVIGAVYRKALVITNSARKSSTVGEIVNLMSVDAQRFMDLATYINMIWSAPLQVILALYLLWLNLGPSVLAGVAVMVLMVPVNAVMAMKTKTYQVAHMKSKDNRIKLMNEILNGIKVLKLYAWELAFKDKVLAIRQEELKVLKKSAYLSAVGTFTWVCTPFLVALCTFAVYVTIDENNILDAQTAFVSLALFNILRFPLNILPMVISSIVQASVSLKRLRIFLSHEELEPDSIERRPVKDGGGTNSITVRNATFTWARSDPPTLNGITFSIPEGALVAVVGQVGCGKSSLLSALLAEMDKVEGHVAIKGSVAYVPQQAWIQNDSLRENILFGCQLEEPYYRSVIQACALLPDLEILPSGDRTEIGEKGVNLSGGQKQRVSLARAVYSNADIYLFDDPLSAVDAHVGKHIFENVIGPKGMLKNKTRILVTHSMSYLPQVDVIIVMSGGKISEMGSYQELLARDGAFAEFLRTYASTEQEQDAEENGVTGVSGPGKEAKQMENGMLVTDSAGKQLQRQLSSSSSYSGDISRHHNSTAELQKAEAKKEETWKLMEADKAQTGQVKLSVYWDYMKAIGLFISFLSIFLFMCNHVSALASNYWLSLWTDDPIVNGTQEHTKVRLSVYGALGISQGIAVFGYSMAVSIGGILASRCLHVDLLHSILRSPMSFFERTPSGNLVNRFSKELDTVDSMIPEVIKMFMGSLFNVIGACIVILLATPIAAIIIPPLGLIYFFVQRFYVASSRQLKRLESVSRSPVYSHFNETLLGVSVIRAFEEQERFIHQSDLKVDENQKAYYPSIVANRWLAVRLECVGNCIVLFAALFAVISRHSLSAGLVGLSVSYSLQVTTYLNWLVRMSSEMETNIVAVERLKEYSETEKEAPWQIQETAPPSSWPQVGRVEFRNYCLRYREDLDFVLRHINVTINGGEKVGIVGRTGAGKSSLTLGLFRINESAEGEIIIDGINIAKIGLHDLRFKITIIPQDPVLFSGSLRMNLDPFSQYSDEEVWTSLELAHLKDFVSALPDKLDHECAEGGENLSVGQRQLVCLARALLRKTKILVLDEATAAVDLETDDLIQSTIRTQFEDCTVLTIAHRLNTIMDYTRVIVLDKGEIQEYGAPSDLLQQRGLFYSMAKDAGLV

Consider `COc1ccc2c(c1)CN(C(=O)CCN1CCC(Cc3ccccc3)CC1)CCS2`, for which the Activity result in data set [1] was “inhibitor [+]”. The activity at 500 µM in data set [2] was found to be 58%.
